According to patent US20240382494A1, “THERAPEUTIC COMPOUNDS” (priority 2023, published 2024):

Assays:
[1] = Cytotoxicity assay in Vero E6 cells (neutral red uptake); format: cell-based; conditions: African green monkey; Vero E6 cells, 2 days at 37° C., neutral red uptake; read-out: Vero CC50
Procedure: Briefly, 80.000 cells/ml of the tested cell lines were dispensed into 96-well cell culture plates at 100 μl per well Twenty-four hours later, the growth medium was removed and washed with 150 μl of PBS buffer. Two hundred microliters of fresh serum-free medium containing serial diluted compounds was added to each well. After incubating for 2 days at 37° C., the medium was removed and replaced with 100 μl of DMEM medium containing neutral red (40 μg/ml) and incubated for 2 to 4 hours at 37° C. The amount of neutral red taken up was determined by measuring the absorbance at 540 nm using a Multiskan FC Microplate Photometer (Thermo Fisher Scientific) The CC50 values were calculated from best-fit dose-response curves with variable slope in Prism 8.

SARS-CoV-2 PLpro = SARS-CoV-2 PLpro (Severe acute respiratory syndrome coronavirus 2, UniProt P0DTD1); assay: FRET-based PLpro enzymatic assay; format: biochemical; conditions: 200 nM PLpro, 10 μM FRET substrate, 30 min preincubation at 30° C.; read-out: IC50
Procedure: The SARS-CoV-2 PL^pro enzymatic assays were carried out as follows. The assay was assembled in 96-well plates with 100 μl of 200 nM PL^Pro protein in PL^Pro reaction buffer [50 mM Hepes (pH 7.5), 0.01% Triton X-100, and 5 mM DTT]. Then, 1 μl of testing compound at various concentrations was added to each well and incubated at 30° C. for 30 minutes. The enzymatic reaction was initiated by adding 1 μl of 1 mM FRET substrate (the final substrate concentration is 10 μM). The reaction was monitored in a Cytation 5 image reader with filters for excitation at 360/40 nm and emission at 460/40 nm at 30° C. for 1 hour. The initial velocity of the enzymatic reaction with and without testing compounds was calculated by linear regression for the first 15 minutes of the kinetic progress curve. The IC50 values were calculated by plotting the initial velocity against various concentrations of testing compounds with a dose-response function in Prism 8 software.

## COc1cc(-c2cc([C@@H](C)NC(=O)c3cc(OCCN(C)C)ccc3C)c3ccccc3n2)cs1 [Example 68, (R)-5-(2-(dimethylamino)ethoxy)-N-(1-(2-(5-methoxythiophene-3-yl)quinolin-4-yl)ethyl)-2-methylbenzamide]
[1]
  CC50 at 2 days: 13.9 ± 4.32 µM
SARS-CoV-2 PLpro
  IC50: < 0.5 µM

## Cc1ccc(OCCN(C)C)cc1C(=O)N[C@H](C)c1cc(-c2cnn(CC(=O)N3CCCC3)c2)nc2ccccc12 [Example 69, (R)-5-(2-(dimethylamino)ethoxy)-2-methyl-N-(1-(2-(1-(2-oxo-2-(pyrrolidin-1-yl)ethyl)-1H-pyrazol-4-yl)quinolin-4-yl)ethyl)benzamide]
[1]
  CC50 at 2 days: 26.4 ± 4.5 µM
SARS-CoV-2 PLpro
  IC50: < 0.5 µM

## CSc1ccc(-c2cc([C@@H](C)NC(=O)c3cc(OCCN(C)C)ccc3C)c3ccccc3n2)cc1 [Example 70, (R)-5-(2-(dimethylamino)ethoxy)-2-methyl-N-(1-(2-(4-(methylthio)phenyl)quinolin-4-yl)ethyl)benzamide]
[1]
  CC50 at 2 days: 8.5 ± 2.01 µM
SARS-CoV-2 PLpro
  IC50: < 0.5 µM

## Cc1ccc(OCCN(C)C)cc1C(=O)N[C@H](C)c1cc(-c2cnn(CC(=O)N(C)C)c2)nc2ccccc12 [Example 71, (R)—N-(1-(2-(1-(2-(dimethylamino)-2-oxoethyl)-1H-pyrazol-4-yl)quinolin-4-yl)ethyl)-5-(2-(dimethylamino)ethoxy)-2-methylbenzamide]
[1]
  CC50 at 2 days: > 250 µM
SARS-CoV-2 PLpro
  IC50: < 0.5 µM

## Cc1ccc(N2CCN(C)CC2)cc1C(=O)N[C@H](C)c1cc(-c2ccco2)nc2ccccc12 [Example 74, (R)—N-(1-(2-(furan-2-yl)quinolin-4-yl)ethyl)-2-methyl-5-(4-methylpiperazin-1-yl)benzamide]
[1]
  CC50 at 2 days: 19.5 ± 1.13 µM
SARS-CoV-2 PLpro
  IC50: < 0.5 µM

## Cc1ccc(N2CCN(C)C3(CC3)C2)cc1C(=O)N[C@H](C)c1cc(-c2cnn(C)c2)nc2ccccc12 [Example 80, (R)-2-methyl-N-(1-(2-(1-methyl-1H-pyrazol-4-yl)quinolin-4-yl)ethyl)-5-(4-methyl-4,7-diazaspiro[2.5]octan-7-yl)benzamide]
[1]
  CC50 at 2 days: 49.7 ± 4.65 µM
SARS-CoV-2 PLpro
  IC50: < 0.5 µM

## Cc1ccc(O[C@H]2CCN(C)C2)cc1C(=O)N[C@H](C)c1cc(-c2cnn(C)c2)nc2ccccc12 [Example 82, 2-methyl-N—((R)-1-(2-(1-methyl-1H-pyrazol-4-yl)quinolin-4-yl)ethyl)-5-(((S)-1-methyl-pyrrolidin-3-yl)oxy)benzamide]
[1]
  CC50 at 2 days: 48.3 ± 2.9 µM
SARS-CoV-2 PLpro
  IC50: < 0.5 µM

## Cc1ccc(OC[C@@H]2CCCN2C)cc1C(=O)N[C@H](C)c1cc(-c2cnn(C)c2)nc2ccccc12 [Example 84, 2-methyl-N—((R)-1-(2-(1-methyl-1H-pyrazol-4-yl)quinolin-4-yl)ethyl)-5-(((S)-1-methylpyrrolidin-2-yl)methoxy)benzamide]
[1]
  CC50 at 2 days: 103 ± 24.4 µM
SARS-CoV-2 PLpro
  IC50: < 0.5 µM

## Cc1ccc(OC[C@@H]2C[C@@H](F)CN2C)cc1C(=O)N[C@H](C)c1cc(-c2cnn(C)c2)nc2ccccc12 [Example 85, 5-(((2S,4R)-4-fluoro-1-methylpyrrolidin-2-yl)methoxy)-2-methyl-N—((R)-1-(2-(1-methyl-1H-pyrazol-4-yl)quinolin-4-yl)ethyl)benzamide]
[1]
  CC50 at 2 days: 33.9 ± 3.74 µM
SARS-CoV-2 PLpro
  IC50: < 0.5 µM

## Cc1ccc(C2=CCN(C)CC2)cc1C(=O)N[C@H](C)c1cc(-c2cnn(C)c2)nc2ccccc12 [Example 86, (R)-2-methyl-5-(1-methyl-1,2,3,6-tetrahydropyridin-4-yl)-N-(1-(2-(1-methyl-1H-pyrazol-4-yl)quinolin-4-yl)ethyl)benzamide]
[1]
  CC50 at 2 days: 92.7 ± 4.59 µM
SARS-CoV-2 PLpro
  IC50: 1 to 5 µM

## Cc1ccc(N2CCC(N(C)C)CC2)cc1C(=O)N[C@H](C)c1cc(-c2cnn(C)c2)nc2ccccc12 [Example 87, (R)-5-(4-(dimethylamino)piperidin-1-yl)-2-methyl-N-(1-(2-(1-methyl-1H-pyrazol-4-yl)quinolin-4-yl)ethyl)benzamide]
[1]
  CC50 at 2 days: 73.8 ± 5.88 µM
SARS-CoV-2 PLpro
  IC50: 1 to 5 µM

## Cc1ccc(N(C)C2CN(C)C2)cc1C(=O)N[C@H](C)c1cc(-c2cnn(C)c2)nc2ccccc12 [Example 88, (R)-2-methyl-5-(methyl(1-methylazetidin-3-yl)amino)-N-(1-(2-(1-methyl-1H-pyrazol-4-yl)quinolin-4-yl)ethyl)benzamide]
[1]
  CC50 at 2 days: 97.4 ± 6.51 µM
SARS-CoV-2 PLpro
  IC50: 1 to 5 µM

## Cc1ccc(N(C)CC2CN(C)C2)cc1C(=O)N[C@H](C)c1cc(-c2cnn(C)c2)nc2ccccc12 [Example 89, (R)-2-methyl-5-(methyl((1-methylazetidin-3-yl)methyl)amino)-N-(1-(2-(1-methyl-1H-pyrazol-4-yl)quinolin-4-yl)ethyl)benzamide]
[1]
  CC50 at 2 days: 89.3 µM
SARS-CoV-2 PLpro
  IC50: 1 to 5 µM

## Cc1ccc(OC2CN(C)C2)cc1C(=O)N[C@H](C)c1cc(-c2cnn(C)c2)nc2ccccc12 [Example 90, (R)-2-methyl-N-(1-(2-(1-methyl-1H-pyrazol-4-yl)quinolin-4-yl)ethyl)-5-((1-methylazetidin-3-yl)oxy)benzamide]
[1]
  CC50 at 2 days: 72.5 ± 2.08 µM
SARS-CoV-2 PLpro
  IC50: < 0.5 µM

## Cc1ccc(OCC2CN(C)C2)cc1C(=O)N[C@H](C)c1cc(-c2cnn(C)c2)nc2ccccc12 [Example 91, (R)-2-methyl-N-(1-(2-(1-methyl-1H-pyrazol-4-yl)quinolin-4-yl)ethyl)-5-((1-methylazetidin-3-yl)methoxy)benzamide]
[1]
  CC50 at 2 days: 96.1 ± 5.36 µM
SARS-CoV-2 PLpro
  IC50: < 0.5 µM

## Cc1ccc(N2CCC3(CC2)CN(C)C3)cc1C(=O)N[C@H](C)c1cc(-c2cnn(C)c2)nc2ccccc12 [Example 92, (R)-2-methyl-N-(1-(2-(1-methyl-1H-pyrazol-4-yl)quinolin-4-yl)ethyl)-5-(2-methyl-2,7-diazaspiro[3.5]nonan-7-yl)benzamide]
[1]
  CC50 at 2 days: 76.5 ± 2.18 µM
SARS-CoV-2 PLpro
  IC50: 0.5 to 1 µM

## Cc1ccc(N(C)C2(C)CN(C)C2)cc1C(=O)N[C@H](C)c1cc(-c2cnn(C)c2)nc2ccccc12 [Example 93, (R)-5-((1,3-dimethylazetidin-3-yl)(methyl)amino)-2-methyl-N-(1-(2-(1-methyl-1H-pyrazol-4-yl)quinolin-4-yl)ethyl)benzamide]
[1]
  CC50 at 2 days: 129 ± 2.32 µM
SARS-CoV-2 PLpro
  IC50: 1 to 5 µM

## Cc1ccc(NC2(C)CN(C)C2)cc1C(=O)N[C@H](C)c1cc(-c2cnn(C)c2)nc2ccccc12 [Example 94, (R)-5-((1,3-dimethylazetidin-3-yl)amino)-2-methyl-N-(1-(2-(1-methyl-1H-pyrazol-4-yl)quinolin-4-yl)ethyl)benzamide]
[1]
  CC50 at 2 days: 154 µM
SARS-CoV-2 PLpro
  IC50: 1 to 5 µM

## Cc1ccc(N2CC(N(C)C)C2)cc1C(=O)N[C@H](C)c1cc(-c2cnn(C)c2)nc2ccccc12 [Example 95, (R)-5-(3-(dimethylamino)azetidin-1-yl)-2-methyl-N-(1-(2-(1-methyl-1H-pyrazol-4-yl)quinolin-4-yl)ethyl)benzamide]
[1]
  CC50 at 2 days: 311 ± 21.1 µM
SARS-CoV-2 PLpro
  IC50: 0.5 to 1 µM

## Cc1ccc(N2CC[C@@H](N(C)C)C2)cc1C(=O)N[C@H](C)c1cc(-c2cnn(C)c2)nc2ccccc12 [Example 96, 5-((R)-3-(dimethylamino)pyrrolidin-1-yl)-2-methyl-N—((R)-1-(2-(1-methyl-1H-pyrazol-4-yl)quinolin-4-yl)ethyl)benzamide]
[1]
  CC50 at 2 days: 28.8 µM
SARS-CoV-2 PLpro
  IC50: < 0.5 µM

## Cc1ccc(N2CCN(C)CC2)cc1C(=O)N[C@H](C)c1cc(-c2ccn(C)n2)nc2ccccc12 [Example 97, (R)-2-methyl-N-(1-(2-(1-methyl-1H-pyrazol-3-yl)quinolin-4-yl)ethyl)-5-(4-methylpiperazin-1-yl)benzamide]
[1]
  CC50 at 2 days: 30.7 ± 2.45 µM
SARS-CoV-2 PLpro
  IC50: < 0.5 µM

## Cc1ccc(OC[C@@H]2CCCN2C)cc1C(=O)N[C@H](C)c1cc(-c2ccn(C)n2)nc2ccccc12 [Example 98, 2-methyl-N—((R)-1-(2-(1-methyl-1H-pyrazol-3-yl)quinolin-4-yl)ethyl)-5-(((S)-1-methylpyrrolidin-2-yl)methoxy)benzamide]
[1]
  CC50 at 2 days: 18.8 ± 1.49 µM
SARS-CoV-2 PLpro
  IC50: < 0.5 µM

## Cc1ccc(N2CCN(C)[C@H](C)C2)cc1C(=O)N[C@H](C)c1cc(-c2ccn(C)n2)nc2ccccc12 [Example 99, 5-((R)-3,4-dimethylpiperazin-1-yl)-2-methyl-N—((R)-1-(2-(1-methyl-1H-pyrazol-3-yl)quinolin-4-yl)ethyl)benzamide]
[1]
  CC50 at 2 days: 24.3 ± 2.62 µM
SARS-CoV-2 PLpro
  IC50: < 0.5 µM

## Cc1ccc(N2CC[C@@H](N(C)C)C2)cc1C(=O)N[C@H](C)c1cc(-c2ccn(C)n2)nc2ccccc12 [Example 100, 5-((R)-3-(dimethylamino)pyrrolidin-1-yl)-2-methyl-N—((R)-1-(2-(1-methyl-1H-pyrazol-3-yl)quinolin-4-yl)ethyl)benzamide]
[1]
  CC50 at 2 days: 30.6 ± 1.72 µM
SARS-CoV-2 PLpro
  IC50: < 0.5 µM

## Cc1ccc(N2CCN(C)C3(CC3)C2)cc1C(=O)N[C@H](C)c1cc(-c2ccn(C)n2)nc2ccccc12 [Example 101, (R)-2-methyl-N-(1-(2-(1-methyl-1H-pyrazol-3-yl)quinolin-4-yl)ethyl)-5-(4-methyl-4,7-diazaspiro[2.5]octan-7-yl)benzamide]
[1]
  CC50 at 2 days: 40.8 ± 4.27 µM
SARS-CoV-2 PLpro
  IC50: 0.5 to 1 µM
